{"source": "patent US20090028920A1", "about": "“UROLOGICAL DEVICES INCORPORATING COLLAGEN INHIBITORS” (Wake Forest University Health Sciences, priority 2006, published 2009)", "key": {"[1]": {"experiment": "Drug release study of coated stents in PBS (UV spectroscopy at 243 nm)", "type": "physicochemical", "settings": "approx. 3 cm coated silicone stents, room temperature, 24-hour intervals", "procedure": "Drug release studies were then performed to determine the amount of halofuginone released by the coated stents, and the timing of drug release. Stents approximately 3 cm in length were coated with halofuginone using our proprietary technique. These stents were then placed in PBS solution at room temperature for 24-hour intervals. After each 24-hour interval, the stents were placed in a new PBS solution, and the previous solution was analyzed for halofuginone concentration using UV spectroscopy (absorption at 243 nm). This process was continued daily until the amount of halofuginone in the PBS dropped to immeasurable levels."}, "[2]": {"settings": "oral doses of up to 3.5 mg/day; cited from earlier work"}, "[3]": {"settings": "rat, in vivo", "procedure": "HF Analysis in Local Tissues and Serum (in Rat): The tissue specimens were morcellated, incubated for 24 hours in 40 mL of PBS, centrifuged, and a sample was taken for HF concentration analysis via spectrophotometry. Blood was also drawn (1 mL) from the heart post-mortem, added to 5 mL of PBS, centrifuged, and the serum analyzed for HF concentration via spectrophotometry."}, "ureter and urethra": {"system": "ureter and urethra", "settings": "orally administered and locally injected; cited from earlier work"}}}
{"smiles": "O=C(CC1NCCCC1O)Cn1cnc2cc(Br)c(Cl)cc2c1=O", "note": "(centres unmarked) [halofuginone, 7-bromo-6-chloro-3-[3-(3-hydroxy-2-piperidinyl)-2-oxopropyl]-4(3H)]", "values": [{"measurement": "duration of sustained release of halofuginone from the stents", "setting": "[1]", "result": "approximately 4 days"}, {"measurement": "release profile", "setting": "[1]", "result": "large burst release the first 24 hours"}, {"measurement": "tolerability", "setting": "[2]", "result": "minimal ill effects"}, {"measurement": "difference between HF levels in serum vs penile tissue", "setting": "[3]", "result": "almost a ten-fold difference"}, {"measurement": "collagen deposition and stricture formation", "setting": "ureter and urethra", "result": "prevent collagen deposition and stricture formation"}]}
